Results from patent publication EP0403366A2, “Cyclomalto-oligosaccharide derivatives and processes for their preparation” (priority 1989, dated 1990).
Converted amounts (≈) assume the structure as drawn.

Tests used:
[1] = Apparent stability constant of inclusion complexes; conditions: in words, complexes with the new derivatives compared with the corresponding cyclomaltoheptaose (CG₇) complexes
physchem = conditions: water
Solubility in water = conditions: in words, compared with cyclomaltoheptaose (CG₇)
[2] = Solubility of apolar solutes in aqueous cyclomalto-oligosaccharide solutions (inclusion complexes); type: physicochemical

| solubility (physchem) [mg/mL] | SMILES | constantes de stabilité apparente des complexes [1] | solubilité dans l'eau (Solubility in water) | other results |
| --- | --- | --- | --- | --- |
|  | C[C@]12CCC(=O)C=C1CC[C@@H]1[C@@H]2[C@@H](O)C[C@@]2(C)[C@H]1CC[C@]2(O)C(=O)CO [Hydrocortisone] | ne sont pas notablement modifiées |  |  |
| 430 (≈ 327 mM) | OC[C@H]1O[C@H](SC[C@H]2O[C@@H]3O[C@H]4[C@H](O)[C@@H](O)[C@@H](O[C@H]5[C@H](O)[C@@H](O)[C@@H](O[C@H]6[C@H](O)[C@@H](O)[C@@H](O[C@H]7[C@H](O)[C@@H](O)[C@@H](O[C@H]8[C@H](O)[C@@H](O)[C@@H](O[C@H]9[C@H](O)[C@@H](O)[C@@H](O[C@H]2[C@H](O)[C@H]3O)O[C@@H]9CO)O[C@@H]8CO)O[C@@H]7CO)O[C@@H]6CO)O[C@@H]5CO)O[C@@H]4CO)[C@H](O)[C@@H](O)[C@@H]1O [Composé 1, 6-S-alpha-D-glucopyranosyl-6-thio-cyclomaltoheptaose] |  | améliorée par rapport à celle du CG₇ |  |
|  | Oc1ccc2ccccc2c1 [2-naphtol] | ne sont pas notablement modifiées |  |  |
| 0.012 (≈ 0.039 mM) | Cc1cccc(N(C)C(=S)Oc2ccc3ccccc3c2)c1 [Tolnaftate, O-2-Naphtyl-méthyl-(3-méthylphényl)-carbomothioate] |  |  | Solubilité ([2]; Solution aqueuse à 1,7.10^-2 mol/l de CG7): 840 µg/mL; Solubilité ([2]; Solution aqueuse à 3,10^-2mol/l de composé n°1): 52 690 µg/ml; Solubilité ([2]; Solution aqueuse à 3,10^-2 mol/l de composé n° 2): 37 090 µg/ml |
| 30 (≈ 22.8 mM) | OC[C@H]1O[C@@H](SC[C@H]2O[C@@H]3O[C@H]4[C@H](O)[C@@H](O)[C@@H](O[C@H]5[C@H](O)[C@@H](O)[C@@H](O[C@H]6[C@H](O)[C@@H](O)[C@@H](O[C@H]7[C@H](O)[C@@H](O)[C@@H](O[C@H]8[C@H](O)[C@@H](O)[C@@H](O[C@H]9[C@H](O)[C@@H](O)[C@@H](O[C@H]2[C@H](O)[C@H]3O)O[C@@H]9CO)O[C@@H]8CO)O[C@@H]7CO)O[C@@H]6CO)O[C@@H]5CO)O[C@@H]4CO)[C@H](O)[C@@H](O)[C@@H]1O [Composé 2, 6-S-bêta-D-glucopyranosyl-6-thio-cyclomaltoheptaose] |  | très améliorée par rapport à celle du cyclomaltoheptaose |  |
